In patent US20260374739A1, “SMALL MOLECULAR WEIGHT CHEMICAL COMPOUND TO ANTAGONIZE EPH-EPHRIN TETRAMERIZATION AND INHIBIT BIDIRECTIONAL SIGNALING” (THE BOARD OF REGENTS OF THE UNIVERSITY OF TEXAS SYSTEM, priority 2022, published 2026):
Several values for one entry are separate records, joined by “and”; a condition that tells them apart may be missing. Equal values may be shown once. Read-outs that look alike come from different tables or passages of the source.

Target: T1, EphrinB2-EphB1 (Homo sapiens, UniProt P54762)
T1 construct: soluble human EphB1-His, EphB2-His, and EphB4-His ectodomains; commercially available human EphrinB1-Fc (EB1), EphrinB2-Fc (EB2), and EphrinB3-Fc (EB3) ectodomain proteins; purchased
T1 sequence (P54762 18-540 limits assumed): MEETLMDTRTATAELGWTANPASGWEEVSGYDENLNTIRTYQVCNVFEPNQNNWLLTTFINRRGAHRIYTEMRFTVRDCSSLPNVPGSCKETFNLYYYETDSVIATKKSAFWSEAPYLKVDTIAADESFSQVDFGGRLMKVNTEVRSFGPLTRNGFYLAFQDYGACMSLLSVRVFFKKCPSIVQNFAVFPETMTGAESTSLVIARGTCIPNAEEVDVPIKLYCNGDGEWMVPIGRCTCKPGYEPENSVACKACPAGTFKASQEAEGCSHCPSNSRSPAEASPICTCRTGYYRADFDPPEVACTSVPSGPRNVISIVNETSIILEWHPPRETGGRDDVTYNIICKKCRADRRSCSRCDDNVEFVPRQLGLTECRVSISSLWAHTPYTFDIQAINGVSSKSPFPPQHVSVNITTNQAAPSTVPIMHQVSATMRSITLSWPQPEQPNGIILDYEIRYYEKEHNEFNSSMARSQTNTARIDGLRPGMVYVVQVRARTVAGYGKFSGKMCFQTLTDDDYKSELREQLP
Test: Octet 80 sec association/500 sec dissociation, immobilized human EphrinB2-Fc binding to soluble human EphB1-His
Conditions: for inhibition at 3.2 µM / % Inhibition: Association + Dissociation (160 sec) / % Inhibited (AUC), Association + Dissociation / % Inhibited (AUC), Association / IC50 / inhibition: EphB1; for inhibition at 3.2 µM / % Inhibition: Association + Dissociation (160 sec): 25 nM EphB1, 3.2 μM compound, A20-I as max control, 0* = less than 0, no inhibition; for EphB1 Inhibition Percent, Inhibition of Association ONLY: at 3.2 μM and 80 seconds; for EphB1 Inhibition Percent, Inhibition of Association ONLY / EphB1 Inhibition Percent, Inhibition of Association-Dissociation: immobilized human EphrinB2, 25 nM soluble human EphB1; for EphB1 Inhibition Percent, Inhibition of Association-Dissociation: at 3.2 μM and 580 seconds; for % Inhibited (AUC), Association + Dissociation: 0-160 sec; for % Inhibited (AUC), Association + Dissociation / % Inhibited (AUC), Association: 50 nM, 10 μM compound, Table 4; for inhibition of EphB1-EphrinB2 binding: association step, general
Method in brief: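 EphrinB2-Fc captured on AHC biosensors, then soluble His-tagged EphB ectodomain (25 nM for % inhibition runs) associated 80 s and dissociated 500 s in PBS, 0.05% Tween-20, 1% DMSO ± compound. Compounds tested at 0.1–3.2 μM with a 10 μM max standard; IC50 from AUC of full traces or at 75 s and 135 s.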

[1] = read-out: % Inhibition: Association + Dissociation (160 sec)
[2] = read-out: % Inhibition: Association ONLY (80 sec)
[3] = Association (75″), read-out: Absolute IC50
[4] = Association (75″), read-out: Relative IC50
[5] = Association (AUC), read-out: Absolute IC50
[6] = Association (AUC), read-out: Relative IC50
[7] = Dissociation (135″), read-out: Absolute IC50
[8] = Dissociation (135″), read-out: Relative IC50
[9] = Full AUC, read-out: Absolute IC50
[10] = Full AUC, read-out: Relative IC50
[11] = highest dose, typically 3.2 μM, read-out: Association (% Inhibited (AUC))
[12] = highest dose, typically 3.2 μM, read-out: Association + Dissociation (% Inhibited (AUC))

Row | EphB1 Inhibition Percent, Inhibition of Association ONLY | EphB1 Inhibition Percent, Inhibition of Association-Dissociation | Compound | inhibition at 3.2 µM [1] | inhibition at 3.2 µM [2] | further results
1 |  |  | Oc1c(Br)cc(CN2CCN(Cc3ccc(Br)cc3)CC2)c2cccnc12 [Compound 44, 7-bromo-5-((4-(4-bromobenzyl)piperazin-1-yl)methyl)quinolin-8-ol] | 49.9% | 37.3% | 
2 |  |  | Oc1c(Br)cc(CN2CCN(c3ccc(Br)cc3)CC2)c2cccnc12 [Compound 28, 7-bromo-5-((4-(4-bromophenyl)piperazin-1-yl)methyl)quinolin-8-ol] |  |  | % Inhibited (AUC), Association + Dissociation: 38.6%; % Inhibited (AUC), Association: 24.7%; IC50 [3]: > 3200 nM; IC50 [4]: 100 nM; IC50 [5]: > 3200 nM; IC50 [6]: 100 nM; IC50 [7]: 360 nM; IC50 [8]: 80 nM; IC50 [9]: 500 nM; IC50 [10]: 170 nM; inhibition [11]: 39.1%; inhibition [12]: 53.1%
3 |  |  | Oc1ccc(CN2CCN(Cc3ccc(Br)cc3)CC2)c2cccnc12 [Compound 42, 5-((4-(4-bromobenzyl)piperazin-1-yl)methyl)quinolin-8-ol] | 36.5% | 19.9% | 
4 | 24.7% and 39.1% | 38.6% and 53.1% | Oc1c(Br)cc(CN2CCN(c3ccc(Br)cc3)CC2)c2cccnc12 [Compound 30, 7-bromo-5-((4-(4-bromophenyl)piperazin-1-ium-1-yl)methyl)-8-hydroxyquinolin-1-ium chloride] |  |  | 
5 |  |  | Oc1ccc(CN2CCN(Cc3ccccc3)CC2)c2cccnc12 [Compound 41, 5-((4-benzylpiperazin-1-yl)methyl)quinolin-8-ol] | 27.7% | 18.7% | 
6 |  |  | OCc1ccc2c(CN3CCOCC3)cc(Br)c(O)c2n1 [Compound 13, 7-bromo-2-(hydroxymethyl)-5-(morpholinomethyl)quinolin-8-ol] | 29.1% | 12.4% | 
7 |  |  | Oc1c(I)cc(CN2CCOCC2)c2cccnc12 [Compound 7, 7-iodo-5-(morpholinomethyl)quinolin-8-ol] | 46.8% | 29.5% | % Inhibited (AUC), Association + Dissociation: 38.4%; % Inhibition: Association + Dissociation (160 sec): 53.1% and 44.3% and 52.4%; % Inhibited (AUC), Association: 25.0%; inhibition (10 μM 2×HCl salt, read-out: % Inhibited (AUC), Association): 36.6%; IC50 [3]: > 3200 nM; IC50 [4]: 850 nM; IC50 [5]: > 3200 nM; IC50 [6]: 980 nM; IC50 [7]: 850 nM; IC50 [8]: 440 nM; IC50 [9]: 1480 nM; IC50 [10]: 240 nM; inhibition (first 160 sec, 10 μM 2×HCl salt, read-out: % Inhibited (AUC), Association + Dissociation): 48.5%; inhibition [11]: 32.6%; inhibition [12]: 49.4%
8 | 28.3% | 46.8% | Oc1ccc(CN2CCCCC2)c2cccnc12 [Compound 68, 5-(piperidin-1-ylmethyl)quinolin-8-ol, reference compound] |  |  | 
9 |  |  | O=C(Cc1ccccc1)Nc1ccc(N2CCN(Cc3ccc(O)c4ncccc34)CC2)cc1 [Compound 51, N-(4-(4-((8-hydroxyquinolin-5-yl)methyl)piperazin-1-yl)phenyl)-2-phenylacetamide] | 61.2% | 52.7% | 
10 |  |  | O=[N+]([O-])c1cc(CN2CCS(=O)(=O)CC2)c2cccnc2c1O [Compound 20, 4-((8-hydroxy-7-nitroquinolin-5-yl)methyl)thiomorpholine 1,1-dioxide] | 36% | 24% | inhibition of EphB1-EphrinB2 binding: 25%
11 |  |  | COc1ccccc1N1CCN(Cc2cc(I)c(O)c3ncccc23)CC1 [Compound 71, 7-iodo-5-((4-(2-methoxyphenyl)piperazin-1-yl)methyl)quinolin-8-ol] | 52.3% | 39.6% | 
12 | 16.9% | 35.0% | COCc1cc(CN2CCN(C)CC2)c(O)c2ncccc12 [Compound 77, 5-(methoxymethyl)-7-((4-methylpiperazin-1-yl)methyl)quinolin-8-ol, reference compound] |  |  | 
13 |  |  | COc1ccccc1N1CCN(Cc2cc(Br)c(O)c3ncccc23)CC1 [Compound 70, 7-bromo-5-((4-(2-methoxyphenyl)piperazin-1-yl)methyl)quinolin-8-ol] | 58.8% | 47.2% | 
14 |  |  | COc1ccc2[nH]cc(C(=O)N3CCN(c4ccccc4OC)CC3)c2c1 [Compound 64, (5-methoxy-1H-indol-3-yl)(4-(2-methoxyphenyl)piperazin-1-yl)methanone] | 0% | 0% | 
15 |  |  | Oc1ccc(CN2CCN(c3ccc(Br)cn3)CC2)c2cccnc12 [Compound 33, 5-((4-(5-bromopyridin-2-yl)piperazin-1-yl)methyl)quinolin-8-ol] | 58.6% | 46.4% | 
16 | 17.9% | 14.7% | Oc1ccc(CN2CCN(c3ccc(F)cc3F)CC2)c2cccnc12 [Compound 62, 5-((4-(2,4-difluorophenyl)piperazin-1-yl)methyl)quinolin-8-ol] |  |  | 
17 |  | 51.5% and 43.1% | Oc1c(CN2CCCCC2)cc(Cl)c2cccnc12 [Compound 76, 5-chloro-7-(piperidin-1-ylmethyl)quinolin-8-ol, reference compound] |  |  | 
18 |  |  | Oc1c(Cl)cc(CN2CCOCC2)c2cccnc12 [Compound 3, 7-chloro-5-(morpholinomethyl)quinolin-8-ol] | 48.4% | 34.2% | 
19 | 1.2% |  | COc1ccc2[nH]cc(C(=O)N3CCOCC3)c2c1 [Compound 63, (5-methoxy-1H-indol-3-yl)(morpholino)methanone] | 0% | 1.19% | 

Row | Compound | EphB1 Inhibition Percent, Inhibition of Association ONLY | EphB1 Inhibition Percent, Inhibition of Association-Dissociation | inhibition at 3.2 µM [1] | inhibition at 3.2 µM [2] | further results
20 | Oc1ccc(CN2CCN(c3ccc(Br)cc3)CC2)c2cccnc12 [Compound 26, 5-((4-(4-bromophenyl)piperazin-1-yl)methyl)quinolin-8-ol] | 11.2% | 36.6% | 30.6% |  | % Inhibition: Association + Dissociation (160 sec) (listed as QPB4): 35.0%
21 | O=[N+]([O-])c1cc(CN2CCOCC2)c2cccnc2c1O [Compound 9, 5-(morpholinomethyl)-7-nitroquinolin-8-ol] | 22.5% and 16.1% and 15.7% | 36.9% and 29.8% and 22.8% |  |  | % Inhibition: Association + Dissociation (160 sec) (listed as A19-NO2 (A)): 36.9% and 29.8%; inhibition of EphB1-EphrinB2 binding: 25%
